ChEMBL document CHEMBL1133707, “Heteroarylmethoxyphenylalkoxyiminoalkylcarboxylic acids as leukotriene biosynthesis inhibitors” (J Med Chem, 2000)
Values belong to the compound of their own block, whether it stands above or below them.

How the values were obtained:
[1] = organism: Homo sapiens; assay: Inhibition of Calcium Ionophore (A-23187)-stimulated LTB4 formation in Human whole blood assay.; format: functional
[2] = system: Rattus norvegicus; assay: Percent inhibition was determined for in vivo ionophore induced rat pleurisy at a dose of 0.3 mg/kg
[3] = biological target: T1, Polyunsaturated fatty acid 5-lipoxygenase (Homo sapiens) (UniProt P09917); assay: Inhibition of Calcium Ionophore (A-23187)-stimulated LTB4 formation in Human Neutrophil assay at 100 uM.; format: functional
T1 sequence (whole entry): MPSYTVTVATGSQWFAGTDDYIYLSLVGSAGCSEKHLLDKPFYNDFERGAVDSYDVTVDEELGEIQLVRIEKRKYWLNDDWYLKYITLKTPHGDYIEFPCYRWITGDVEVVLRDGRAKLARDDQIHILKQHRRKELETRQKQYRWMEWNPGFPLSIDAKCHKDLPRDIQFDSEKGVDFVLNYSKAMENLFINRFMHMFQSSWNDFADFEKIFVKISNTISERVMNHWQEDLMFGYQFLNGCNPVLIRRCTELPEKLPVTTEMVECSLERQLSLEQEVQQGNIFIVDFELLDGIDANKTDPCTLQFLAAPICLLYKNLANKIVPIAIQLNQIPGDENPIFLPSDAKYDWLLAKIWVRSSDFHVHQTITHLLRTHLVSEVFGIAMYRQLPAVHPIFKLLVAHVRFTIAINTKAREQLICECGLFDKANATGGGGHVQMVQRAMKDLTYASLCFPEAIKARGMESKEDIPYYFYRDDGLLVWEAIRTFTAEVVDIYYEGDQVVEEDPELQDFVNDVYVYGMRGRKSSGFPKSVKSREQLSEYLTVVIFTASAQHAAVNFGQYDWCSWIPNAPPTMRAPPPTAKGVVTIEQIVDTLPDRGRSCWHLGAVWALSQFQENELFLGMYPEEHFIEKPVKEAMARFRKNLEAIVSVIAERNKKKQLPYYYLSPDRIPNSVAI

[4] = system: Rattus norvegicus; assay: Effective dose was determined for in vivo ionophore induced rat pleurisy.; format: functional
[5] = system: Rattus norvegicus; assay: Percent inhibition was determined for in vivo ionophore induced rat pleurisy at a dose of 3 mg/kg; format: functional
[6] = half life was determined in plasma of dog; format: ADME, organism-based, Canis lupus familiaris
[7] = half life was determined in plasma of monkey; format: ADME; details: simiiformes
[8] = system: Rattus norvegicus; assay: In vivo inhibition of ionophore induced rat pleurisy.; format: functional
[9] = system: Rattus norvegicus; assay: Effective dose was determined in in vivo which inhibits 50% of the mean value in rat anaphylaxis.; format: functional
[10] = system: Rattus norvegicus; assay: Percent inhibition was determined for in vivo ionophore induced rat pleurisy at a dose of 10 mg/kg
[11] = half life was determined in plasma of rat; format: ADME, organism-based
[12] = biological target: T1, Polyunsaturated fatty acid 5-lipoxygenase (Homo sapiens); assay: Inhibition of Calcium Ionophore (A-23187)-stimulated LTB4 formation in Human Neutrophil assay at 100 nM.
[13] = organism: Homo sapiens; assay: Inhibition of Calcium Ionophore (A-23187)-stimulated LTB4 formation in Human whole blood assay at a concentration of 12.5 nM; format: functional

Compound: C/C(=N\OC(c1ccc(OCc2ccc3ccccc3n2)cc1)C1CCCCC1)C(=O)[O-].[Na+] (stereo not drawn)
Inhibition [1]: 72% | I [2]: 74%

inhibition [3]: 2%
Compound: O=C(O)/C=N/OC(c1nc(OCc2ccc3ccccc3n2)c(-c2ccccc2)s1)C1CCCCC1 (stereo not drawn)

Compound: CC(C)(CC(O/N=C/C(=O)O)c1ccc(OCc2ccc3ccccc3n2)cc1)c1ccccc1 (stereo not drawn)
ED50 [4]: 4 mg/kg

inhibition [3]: 58%
Compound: COc1ccc(C(O/N=C(\C)C(=O)O)c2ccc(OCc3ccc4ccccc4n3)cc2)cc1 (stereo not drawn)
I [5]: 20%

half-life [6]: 5.6 h | half-life [7]: 1.5 h | IC50 [1]: 1800 nM
Compound: C/C(=N\OC(c1ccc(OCc2ccc3ccccc3n2)cc1)C1CCCCC1)C(=O)O (stereo not drawn) [listing 1 of 2 here]
ED50 [8]: 0.5 mg/kg | ED50 [9]: 1.2 mg/kg

inhibition [3]: 51%
Compound: C/C(=N/OC(CCc1ccc(OCc2ccc3ccccc3n2)cc1)C1CCCCC1)C(=O)O (stereo not drawn)
I [5]: 6%

half-life [6]: 4.5 h | half-life [7]: 3.8 h
Compound: C/C(=N\O[C@@H](c1ccc(OCc2ccc3ccccc3n2)cc1)C1CCCCC1)C(=O)O
Inhibition ([1]; Homo sapiens, Blood): 63% | I [5]: 29%

inhibition [3]: 96%
Compound: CCCCCCCC(O/N=C(\C)C(=O)O)c1ccc(OCc2ccc3ccccc3n2)cc1 (stereo not drawn)

inhibition [3]: 100%
Compound: CCCCCCCC(O/N=C/C(=O)O)c1ccc(OCc2ccc3ccccc3n2)cc1 (stereo not drawn)
I [5]: 0%

Compound: O=C(O)/C=N/OCC(c1ccc(OCc2ccc3ccccc3n2)cc1)C1CCCCC1 (stereo not drawn)
I [10]: 73%

inhibition [3]: 45%
Compound: CCCCC(O/N=C(\C)C(=O)O)c1ccc(OCc2ccc3ccccc3n2)cc1 (stereo not drawn)

inhibition [3]: 98%
Compound: COc1cc(OCc2ccc3ccccc3n2)ccc1C(O/N=C(\C)C(=O)O)C1CCCCC1 (stereo not drawn)
I [5]: 32%

half-life [11]: 11.8 h | half-life [6]: 4.6 h | half-life [7]: 4 h | IC50 [1]: 840 nM
Compound: C/C(=N\O[C@H](c1ccc(OCc2ccc3ccccc3n2)cc1)C1CCCCC1)C(=O)O
I [2]: 43%

inhibition [3]: 97%
Compound: O=C(O)/C=N/OC(c1ccc(OCc2ccc3ccccc3n2)c(F)c1)C1CCCCC1 (stereo not drawn)

inhibition [12]: 40%
Compound: C/C(CC(=O)O)=N\OC(c1ccc(OCc2ccc3ccccc3n2)cc1)C1CCCCC1 (stereo not drawn)
I [5]: 68%

Compound: C/C(=N/OC(c1ccc(OCc2ccc3ccccc3n2)cc1)C1CCCCC1)C(=O)O (stereo not drawn)
Inhibition [13]: 59%

half-life [11]: 10.3 h | half-life [6]: 5.6 h | half-life [7]: 1.6 h | IC50 ([1]; Homo sapiens, Blood): 720 nM
Compound: C/C(=N\O[C@H](c1ccc(OCc2ccc3ccccc3n2)cc1)C1CCCCC1)C(=O)[O-].[Na+]
ED50 [8]: 0.14 mg/kg | ED50 [9]: 0.13 mg/kg

inhibition [3]: 20%
Compound: C/C(=N\OC(c1ccc(OCc2ccc3ccccc3n2)cc1)c1cccnc1)C(=O)O (stereo not drawn)

inhibition [3]: 54%
Compound: CCCCCCCCCCCCC(O/N=C/C(=O)O)c1ccc(OCc2ccc3ccccc3n2)cc1 (stereo not drawn)

Compound: C/C(=N\OC(c1ccc(OCc2ccc3ccccc3n2)cc1Cl)C1CCCCC1)C(=O)O (stereo not drawn)
ED50 [4]: 0.8 mg/kg

inhibition [3]: 95%
Compound: O=C(O)c1ccc(O)c(/C=N/OC(c2ccc(OCc3ccc4ccccc4n3)cc2)C2CCCCC2)c1 (stereo not drawn)
I [5]: 35%

inhibition [3]: 61%
Compound: C/C(=N\OC(c1ccc(OCc2cc(-c3ccccc3)on2)cc1)C1CCCCC1)C(=O)O (stereo not drawn)
I [5]: 0%

inhibition [3]: 57%
Compound: C/C(=N\OC(c1ccc(OCc2nc(-c3ccc(C(C)C)cc3)cs2)cc1)C1CCCCC1)C(=O)O (stereo not drawn)
I [5]: 17%

inhibition [3]: 55%
Compound: O=C(O)/C=N/OC(c1ccc(-c2ccc(OCc3ccc4ccccc4n3)cc2)cc1)C1CCCCC1 (stereo not drawn)
I [5]: 10%

inhibition [3]: 95%
Compound: C/C(=N\OC(c1ccc(OCc2ccc3ccccc3n2)cc1)C1CCCCC1)C(=O)O (stereo not drawn) [listing 2 of 2 here]

inhibition [3]: 92%
Compound: CCCCCCCCC(O/N=C(\C)C(=O)O)c1ccc(OCc2ccc3ccccc3n2)cc1 (stereo not drawn)
I [5]: 27%

inhibition [3]: 48%
Compound: O=C(O)/C=C/c1ccc(/C=N/OC(c2ccc(OCc3ccc4ccccc4n3)cc2)C2CCCCC2)cc1 (stereo not drawn)
I [5]: 0%

half-life [11]: 1 h | half-life [6]: 2 h | half-life [7]: 5.4 h | IC50 ([1]; Homo sapiens, Blood): 2100 nM
Compound: CC(=NOC(c1ccc(OCc2ccc3ccccc3n2)cc1)C1CCCCC1)C(=O)O (stereo not drawn)
ED50 [9]: 1.2 mg/kg | I [5]: 89%

Compound: CC(C)(C)SC/C(=N\OC(c1ccc(OCc2ccc3ccccc3n2)cc1)C1CCCCC1)C(=O)O (stereo not drawn)
I [4]: 47%

inhibition [3]: 7%
Compound: C/C(=N\OC(c1ccc(OCc2cccc(Cl)n2)cc1)C1CCCCC1)C(=O)O (stereo not drawn)
